# Source: US10441663B2, “Methods for treating cancer” (Bicycle Therapeutics Limited, priority 2016, dated 2019)
# *1 amine or outer side, *2 acyl side, *3 side chain or, on linkers, in order; H or OH if unused. Where a SMILES comes first, the peptide text is derived from it. Bridges are numbered along the chain shown (N, C = ends). [ ]: non-standard residue; d: D form. The star is where a group is joined. X1 = COc1cc2cc(c1Cl)N(C)C(=O)C[C@H](OC(=O)[C@H](C)N(C)C(=O)CCSSC(C)CCC(=O)*)[C@]1(C)O[C@H]1[C@H](C)[C@@H]1C[C@@](O)(NC(=O)O1)[C@H](OC)/C=C/C=C(\C)C2; 1Nal = N[C@@H](Cc1cccc2ccccc12)C(=O)O; TBMB = c1c(C[*:1])cc(C[*:3])cc1C[*:2]; Tle = CC(C)(C)[C@H](N)C(=O)O; βAla = NCCC(=O)O; Sar = CNCC(=O)O
# System: HT-29 xenograft
# Assay: In vivo efficacy of BT1718 in HT-29 xenograft
# Parameters: species or system Mus Musculus; key to Best response at 10 mg/kg: CR complete response; PR partial response
# Procedure: The objective of this study was to evaluate the in vivo anti-tumor efficacy of BT1718in treatment of HT1080, NCI-H292, NCI-H1975, MDA-MB-231, HCC1806, RPMI2650, HCT-15, HT-29 and SNU-16 xenograft in BALB/c nude mice.
# The HT1080, NCI-H292, NCI-H1975, MDA-MB-231, HCC1806, RPMI2650, HCT-15, HT-29 and SNU-16 tumor cells were maintained in vitro as a monolayer culture in medium supplemented with 10% heat inactivated fetal bovine serum at 37° C. in an […]. The tumor cells will be routinely subcultured twice weekly by trypsin-EDTA treatment. The cells growing in an exponential growth phase will be harvested and counted for tumor inoculation.
# Mouse was inoculated subcutaneously at the right flank with tumor cells for tumor development. The animals were randomized and treatment was started when the average tumor reaches certain volume for the efficacy study, the inoculating cell amounts and starting tumor size were shown as below in Table 9. The test article administration and the animal numbers in each group were shown in the experimental design in Table 10.
# All the procedures related to animal handling, care and the treatment in the study were performed according to the guidelines of the Association for Assessment and Accreditation of Laboratory Animal Care (AAALAC). At the time of routine monitoring, the animals were daily checked for any effects of tumor growth and treatments on normal behavior such as mobility, food and water consumption (by looking only), body weight gain/loss (body weights were measured every day), eye/hair matting and any other abnormal effect as stated in the protocol. Death and observed clinical signs were recorded on the basis of the numbers of animals within each subset.
# The major endpoint was to see if the tumor growth could be delayed or mice could be cured. Tumor size was measured three times weekly in two dimensions using a caliper, and the volume was expressed in mm^3 using the formula: V=0.5 a×b^2 where a and b are the long and short diameters of the tumor, respectively. The tumor size was then used for calculations of T/C value. The T/C value (in percent) is an indication of antitumor effectiveness; T and C are the mean volumes of the treated and control groups, respectively, on a given day.
# TGI was calculated for each group using the formula: TGI (%)=[1−(Ti−T0)/(Vi−V0)]×100; Ti is the average tumor volume of a treatment group on a given day, T0 is the average tumor volume of the treatment group on the day of treatment start, Vi is the average tumor volume of the vehicle control group on the same day with Ti, and V0 is the average tumor volume of the vehicle group on the day of treatment start.
# Summary statistics, including mean and the standard error of the mean (SEM), are provided for the tumor volume of each group at each time point.
# Statistical analysis of difference in tumor volume among the groups was conducted on the data obtained at the best therapeutic time point after the final dose.
# A one-way ANOVA was performed to compare tumor volume among groups, and when a significant F-statistics (a ratio of treatment variance to the error variance) was obtained, comparisons between groups were carried out with Games-Howell test. All data were analyzed using Prism. P<0.05 was considered to be statistically significant.
smiles,measurement,setting,value
COc1cc2cc(c1Cl)N(C)C(=O)C[C@H](OC(=O)[C@H](C)N(C)C(=O)CCSSC(C)CCC(=O)NCCC(=O)N(C)CC(=O)N(C)CC(=O)N(C)CC(=O)N(C)CC(=O)N(C)CC(=O)N(C)CC(=O)N(C)CC(=O)N(C)CC(=O)N(C)CC(=O)N(C)CC(=O)N[C@@H](C)C(=O)N[C@H]1CSCc3cc4cc(c3)CSC[C@H](NC(=O)[C@@H](C)NC(=O)[C@H](Cc3cccc5ccccc35)NC(=O)[C@H](CCC(=O)O)NC(=O)[C@H](CC(N)=O)NC(=O)[C@@H](C)NC1=O)C(=O)N[C@@H](CCC(=O)O)C(=O)N[C@@H](CC(=O)O)C(=O)N[C@@H](Cc1ccccc1)C(=O)N[C@@H](Cc1ccc(O)cc1)C(=O)N[C@@H](CC(=O)O)C(=O)N[C@@H](C(C)(C)C)C(=O)N[C@H](C(N)=O)CSC4)[C@]1(C)O[C@H]1[C@H](C)[C@@H]1C[C@@](O)(NC(=O)O1)[C@H](OC)/C=C/C=C(\C)C2 (stereo partly drawn) [BT1718] ({X1-βAla}-[Sar][Sar][Sar][Sar][Sar][Sar][Sar][Sar][Sar][Sar]AC[dA]NE[1Nal][dA]CEDFYD[Tle]C-NH2; linker 12-18-25 via TBMB (inferred)),tumor response,10 mg/kg biw,"significant tumor inhibition effect, but didn't cause tumor regression"
same,Body Weight,"1 mpk biw, day 0",23.0 ± 0.2 g
same,Tumor Volume,"1 mpk biw, day 0",160 ± 27 mm^3
same,Body Weight,"1 mpk biw, day 2",22.8 ± 0.2 g
same,Tumor Volume,"1 mpk biw, day 2",189 ± 18 mm^3
same,Body Weight,"1 mpk biw, day 4",22.3 ± 0.5 g
same,Tumor Volume,"1 mpk biw, day 4",203 ± 13 mm^3
same,Body Weight,"1 mpk biw, day 6",22.3 ± 0.5 g
same,Tumor Volume,"1 mpk biw, day 6",260 ± 18 mm^3
same,Body Weight,"1 mpk biw, day 8",22.3 ± 0.4 g
same,Tumor Volume,"1 mpk biw, day 8",273 ± 35 mm^3
same,Body Weight,"1 mpk biw, day 11",22.4 ± 0.7 g
same,Tumor Volume,"1 mpk biw, day 11",453 ± 45 mm^3
same,Body Weight,"1 mpk biw, day 13",22.3 ± 0.7 g
same,Tumor Volume,"1 mpk biw, day 13",533 ± 43 mm^3
same,Body Weight,"3 mpk biw, day 0",22.2 ± 0.2 g
same,Tumor Volume,"3 mpk biw, day 0",159 ± 36 mm^3
same,Body Weight,"3 mpk biw, day 2",22.1 ± 0.4 g
same,Tumor Volume,"3 mpk biw, day 2",178 ± 41 mm^3
same,Body Weight,"3 mpk biw, day 4",22.0 ± 0.5 g
same,Tumor Volume,"3 mpk biw, day 4",214 ± 51 mm^3
same,Body Weight,"3 mpk biw, day 6",22.4 ± 0.6 g
same,Tumor Volume,"3 mpk biw, day 6",268 ± 70 mm^3
same,Body Weight,"3 mpk biw, day 8",22.6 ± 0.6 g
same,Tumor Volume,"3 mpk biw, day 8",297 ± 87 mm^3
same,Body Weight,"3 mpk biw, day 11",22.0 ± 0.4 g
same,Tumor Volume,"3 mpk biw, day 11",472 ± 129 mm^3
same,Body Weight,"3 mpk biw, day 13",22.2 ± 0.3 g
same,Tumor Volume,"3 mpk biw, day 13",616 ± 145 mm^3
same,Body Weight,"10 mpk biw, day 0",24.6 ± 1.2 g
same,Tumor Volume,"10 mpk biw, day 0",164 ± 32 mm^3
same,Body Weight,"10 mpk biw, day 2",23.6 ± 1.2 g
same,Tumor Volume,"10 mpk biw, day 2",177 ± 28 mm^3
same,Body Weight,"10 mpk biw, day 4",22.1 ± 1.5 g
same,Tumor Volume,"10 mpk biw, day 4",195 ± 36 mm^3
same,Body Weight,"10 mpk biw, day 6",22.9 ± 1.5 g
same,Tumor Volume,"10 mpk biw, day 6",232 ± 54 mm^3
same,Body Weight,"10 mpk biw, day 8",21.2 ± 1.2 g
same,Tumor Volume,"10 mpk biw, day 8",198 ± 44 mm^3
same,Body Weight,"10 mpk biw, day 11",21.2 ± 1.7 g
same,Tumor Volume,"10 mpk biw, day 11",182 ± 46 mm^3
same,Body Weight,"10 mpk biw, day 13",21.7 ± 1.0 g
same,Tumor Volume,"10 mpk biw, day 13",146 ± 32 mm^3
same,Best response at 10 mg/kg,"HT-29, 10 mg/kg",PR
same,TGI,"HT-29, 1 mpk, biw, day 14",24.0%
same,Tumor Volume,"HT-29, 1 mpk, biw, day 14",533 ± 43 mm^3
same,TGI,"HT-29, 3 mpk, biw, day 14",6.8%
same,Tumor Volume,"HT-29, 3 mpk, biw, day 14",616 ± 145 mm^3
same,TGI,"HT-29, 10 mpk, biw, day 14",103.6%
same,Tumor Volume,"HT-29, 10 mpk, biw, day 14",146 ± 32 mm^3
same,Minimally Effective Dose IV BIW,"HT-29, dose leading to tumor-stasis",10 mg/kg
